Consider 12 compounds from ChEMBL document CHEMBL1201862, “PubChem BioAssay data set” (2004).

As a reminder, the GI50 is the concentration at which growth is held to half of that of the control.

Test systems include NCI-H226; NCI-H522; HCT-116; NCI-H460; LOX IMVI; HOP-62; EKVX; 786-0; HOP-92; UO-31; A549; K562; SF-268; MCF7; SF-295; OVCAR-5; HCT-15; MDA-MB-435; SNB-75; A498.
Test in all cases: DTP human tumour cell line panel, 48 h

Structures are written as SMILES.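 48-hour exposure; five concentrations; linearly interpolated endpoints. GI50 marks 50% less growth.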 Active and inactive are the calls of the source. Rule as the data show it: active = GI50 up to about 1.1 µM and inactive = higher.

Regarding `Cc1ccc(O)c(C2=CC(c3cccc(Cl)c3)SC(=N)N2)c1` (stereo not drawn), the GI50 in the experiment with NCI-H226 is 16.6 µM (inactive); with NCI-H522, 16.1 µM (inactive); in the experiment on HCT-116, 19.3 µM (inactive); with NCI-H460 it was 23.9 µM (inactive); with LOX IMVI it was 18.6 µM (inactive); in the experiment on HOP-62, 23 µM (inactive). For the same compound, the GI50 in the experiment with EKVX is 17.1 µM (inactive); with 786-0 it was 30.8 µM (inactive); in the experiment with HOP-92 it was 10.8 µM (inactive); in the experiment with UO-31, 27.4 µM (inactive); with A549, 23.3 µM (inactive); with K562, 19.4 µM (inactive). The GI50 in the experiment with SF-268 is 32.2 µM (inactive); in the experiment on MCF7, 29.9 µM (inactive); in the experiment on SF-295, 17.8 µM (inactive); with OVCAR-5, 26.2 µM (inactive); with HCT-15, 18.9 µM; in the experiment with MDA-MB-435, 19 µM (inactive).

In the case of `COCN1C(=O)[C@@H]2CCCN2C(=O)c2cc([N+](=O)[O-])ccc21`, the GI50 is 67.9 µM (inactive) with SNB-75; 2.21 µM (inactive) with NCI-H226; 43 µM (inactive) with A498; 16 µM (inactive) in the experiment on NCI-H522; 86.9 µM (inactive) with HCT-116; 26.3 µM (inactive) with LOX IMVI. The GI50 in the experiment with HOP-62 was 41.1 µM (inactive); in the experiment on EKVX, > 100 µM (inactive); with 786-0, > 100 µM (inactive); in the experiment on UO-31, 35.5 µM (inactive); in the experiment with A549, 88.3 µM (inactive); in the experiment with SF-268, 35.9 µM (inactive). In addition, the GI50 in the experiment with MCF7 is 46.3 µM (inactive); in the experiment with SF-295, 35.5 µM (inactive); in the experiment with OVCAR-5 it was 52.7 µM (inactive); in the experiment on HCT-15, above 100 µM; with MDA-MB-435, 66.2 µM (inactive).

In the case of `CC1(C)CCCCC1/C=C/C(CC(O)(C(F)(F)F)C(F)(F)F)=N\Nc1ccc([N+](=O)[O-])cc1[N+](=O)[O-]` (stereo not drawn), the GI50 was 1.31 µM (inactive) in the experiment on SNB-75; 0.498 µM (active) in the experiment with NCI-H226; 1.25 µM (inactive) in the experiment with A498; 0.49 µM (active) with NCI-H522; 0.587 µM (active) with HCT-116; 0.604 µM (active) in the experiment with NCI-H460. For the same compound, the GI50 is 1.78 µM (inactive) in the experiment on LOX IMVI; 0.578 µM (active) in the experiment on HOP-62; 1.92 µM (inactive) in the experiment with 786-0; 0.706 µM (active) in the experiment on UO-31; 1.26 µM (inactive) in the experiment on A549; 0.368 µM (active) with K562. Moreover, the concentration for 50% growth inhibition (GI50) in the experiment on SF-268 was 0.527 µM (active); with MCF7, 0.573 µM (active); with SF-295, 2.42 µM (inactive); in the experiment on OVCAR-5, 1.57 µM (inactive); in the experiment on HCT-15 it was 1.32 µM; in the experiment with MDA-MB-435, 0.49 µM (active).

With `CC#CC(O)(C(=O)OC1CC(C)N(C)C(C)(C)C1)C1CCCC1` (stereo not drawn), the GI50 with SNB-75, with NCI-H226, with NCI-H522, in the experiment on HCT-116, in the experiment with LOX IMVI and in the experiment on HOP-62 was > 100 µM (inactive) throughout. Besides, the GI50 in the experiment with EKVX, in the experiment on 786-0, with UO-31, with A549, in the experiment on K562 and in the experiment on SF-268 was > 100 µM (inactive) throughout. For the same compound, the GI50 with MCF7 is > 100 µM (inactive); with SF-295, > 100 µM (inactive); in the experiment with OVCAR-5, > 100 µM (inactive); with HCT-15 it was above 100 µM; in the experiment with MDA-MB-435, > 100 µM (inactive).

As to `COc1ccc2c(c1)c(CC(=O)O)c(C)n2C(=O)c1ccc(Cl)cc1`, the GI50 with SNB-75 was 39.9 µM (inactive); with NCI-H226 it was 98.4 µM (inactive); with NCI-H522, 77.1 µM (inactive); in the experiment with HCT-116, > 100 µM (inactive); in the experiment with NCI-H460 it was 39.9 µM (inactive); with LOX IMVI it was > 100 µM (inactive). Moreover, the GI50 was 54.5 µM (inactive) in the experiment with HOP-62; > 100 µM (inactive) in the experiment on EKVX; 75.3 µM (inactive) with 786-0; 4.42 µM (inactive) in the experiment with HOP-92; 41.8 µM (inactive) in the experiment on UO-31; > 100 µM (inactive) in the experiment on A549. Moreover, the GI50 is 13.7 µM (inactive) in the experiment with K562; > 100 µM (inactive) in the experiment on SF-268; 87.7 µM (inactive) in the experiment on MCF7; > 100 µM (inactive) with SF-295; > 100 µM (inactive) in the experiment on OVCAR-5; above 100 µM with HCT-15. The GI50 with MDA-MB-435 is > 100 µM (inactive).

Consider `O=C1OC(c2ccccc2)N/C1=C\c1ccc2c(c1)OCO2` (stereo not drawn), for which the GI50 is 98.9 µM (inactive) in the experiment with SNB-75; 34 µM (inactive) in the experiment on NCI-H226; 35.6 µM (inactive) in the experiment with NCI-H522; > 100 µM (inactive) in the experiment on HCT-116; > 100 µM (inactive) with NCI-H460; 53.3 µM (inactive) in the experiment with LOX IMVI. Further, the GI50 with HOP-62 was > 56.8 µM (inactive); in the experiment with EKVX it was > 100 µM (inactive); with 786-0, > 100 µM (inactive); with HOP-92, > 100 µM (inactive); in the experiment with UO-31 it was > 100 µM (inactive); in the experiment with A549 it was > 100 µM (inactive). The GI50 in the experiment on K562 was > 100 µM (inactive); in the experiment with SF-268, > 100 µM (inactive); with MCF7, > 100 µM (inactive); in the experiment on SF-295 it was > 100 µM (inactive); in the experiment on OVCAR-5, > 100 µM (inactive); in the experiment on HCT-15, above 100 µM. In the experiment with MDA-MB-435, the GI50 was > 100 µM (inactive).

As to `COc1cccc(/C=N/[N+](C)(C)C)c1O`, the GI50 in the experiment on SNB-75, in the experiment on NCI-H226, in the experiment with A498, with NCI-H522, in the experiment with HCT-116 and in the experiment on NCI-H460 was > 10 µM (inactive) in each case. In addition, the GI50 in the experiment on LOX IMVI, in the experiment on HOP-62, in the experiment with EKVX, with 786-0, in the experiment on UO-31 and with A549 was > 10 µM (inactive) throughout. Besides, the GI50 was > 10 µM (inactive) in the experiment with K562; > 10 µM (inactive) in the experiment on SF-268; > 10 µM (inactive) with MCF7; > 10 µM (inactive) in the experiment on SF-295; > 10 µM (inactive) in the experiment on OVCAR-5; above 10 µM in the experiment on HCT-15. In addition, in the experiment with MDA-MB-435, the GI50 was > 10 µM (inactive).

Take `CC(=O)n1c2ccc(Br)cc2c2nc3ccccc3nc21`: the GI50 with SNB-75, in the experiment on NCI-H226, in the experiment on NCI-H522, with HCT-116, with NCI-H460 and with LOX IMVI was > 100 µM (inactive) in each case. In addition, the GI50 in the experiment with HOP-62 was 95.1 µM (inactive); with EKVX, > 100 µM (inactive); with 786-0, > 100 µM (inactive); in the experiment on HOP-92 it was > 100 µM (inactive); with UO-31 it was > 100 µM (inactive); in the experiment with K562, > 100 µM (inactive). In addition, the GI50 is > 100 µM (inactive) in the experiment with SF-268; 56.2 µM (inactive) with MCF7; > 100 µM (inactive) with SF-295; > 100 µM (inactive) in the experiment on OVCAR-5; above 100 µM in the experiment with HCT-15; > 100 µM (inactive) in the experiment on MDA-MB-435.

As to `COc1cc(Br)cc2cc(C3=CSC4=NCCN34)c(=O)oc12`, the GI50 with SNB-75 was 21 µM (inactive); in the experiment on HCT-116, 17.8 µM (inactive); in the experiment on NCI-H460 it was 19.9 µM (inactive); with LOX IMVI, 18.2 µM (inactive); in the experiment with HOP-62, 19.3 µM (inactive); with EKVX it was 17.7 µM (inactive). Also, the GI50 with 786-0 is 18.4 µM (inactive); in the experiment with HOP-92, 17.1 µM (inactive); in the experiment with UO-31 it was 19.3 µM (inactive); in the experiment with A549, 21.3 µM (inactive); in the experiment with K562 it was 26.5 µM (inactive); in the experiment on MCF7 it was 18 µM (inactive). The GI50 is 19.4 µM (inactive) in the experiment on SF-295, 23.3 µM (inactive) in the experiment with OVCAR-5, 17.2 µM in the experiment on HCT-15 and 17.8 µM (inactive) in the experiment with MDA-MB-435.

For `Cc1cc2[nH]c3c(C#N)c(-c4ccccc4)c(/C=N/c4cccc(C(F)(F)F)c4)c(=O)n3c2cc1C`, the GI50 in the experiment with SNB-75 was > 100 µM (inactive); in the experiment with NCI-H226 it was > 100 µM (inactive); in the experiment on A498, > 100 µM (inactive); in the experiment on NCI-H522, 39.4 µM (inactive); in the experiment on HCT-116 it was 40.8 µM (inactive); in the experiment with NCI-H460 it was > 100 µM (inactive). In addition, the GI50 in the experiment on LOX IMVI was 97.9 µM (inactive); in the experiment on HOP-62 it was 22.6 µM (inactive); in the experiment with EKVX, > 100 µM (inactive); with 786-0, 94 µM (inactive); in the experiment on UO-31 it was > 100 µM (inactive); in the experiment on A549, > 100 µM (inactive). The GI50 was 64.7 µM (inactive) in the experiment with SF-268; 79.8 µM (inactive) in the experiment with MCF7; 64.3 µM (inactive) in the experiment with SF-295; > 100 µM (inactive) in the experiment on OVCAR-5; 74.1 µM in the experiment on HCT-15; > 100 µM (inactive) with MDA-MB-435.

As to `O=c1cc(N2CCCC2)[nH]c(=O)n1Cc1ccccc1`, the GI50 in the experiment on SNB-75 is > 100 µM (inactive); in the experiment with NCI-H226, 55.3 µM (inactive); in the experiment on NCI-H522 it was > 100 µM (inactive); in the experiment with HCT-116 it was > 100 µM (inactive); in the experiment on NCI-H460, > 100 µM (inactive); in the experiment with LOX IMVI, > 100 µM (inactive). Moreover, the GI50 in the experiment on HOP-62, with EKVX, with 786-0, with HOP-92, in the experiment with A549 and in the experiment with K562 was > 100 µM (inactive) in each case. For the same compound, the GI50 in the experiment with MCF7 was > 100 µM (inactive); in the experiment with SF-295, > 100 µM (inactive); with OVCAR-5, > 100 µM (inactive); in the experiment on HCT-15, above 100 µM; in the experiment with MDA-MB-435, > 100 µM (inactive).

As to `Nc1ccc2nc(-c3cccc(Cl)c3)cc(O)c2c1`, the GI50 in the experiment on SNB-75 was 2.15 µM (inactive); in the experiment with NCI-H522, 2.34 µM (inactive); in the experiment with NCI-H460, 4.39 µM (inactive); in the experiment on HOP-62, 5.87 µM (inactive); in the experiment on EKVX, 42.6 µM (inactive); in the experiment on 786-0 it was 4.24 µM (inactive). Moreover, the GI50 with HOP-92 is 2.84 µM (inactive); in the experiment on A549 it was 6.15 µM (inactive); in the experiment on MCF7, 3.46 µM (inactive); in the experiment with OVCAR-5, > 100 µM (inactive); with HCT-15, 3.19 µM; in the experiment with MDA-MB-435, 0.738 µM (active).
